# Literature values in patent US8865693B2, “Prevention of infection” (Pop Test Cortisol LLC, priority 2011, dated 2014).
# Experiments:
# [1] = biological target: T1, glucocorticoid receptor (Homo sapiens, UniProt P04150); details: in words only
# T1 sequence (P04150 1-777): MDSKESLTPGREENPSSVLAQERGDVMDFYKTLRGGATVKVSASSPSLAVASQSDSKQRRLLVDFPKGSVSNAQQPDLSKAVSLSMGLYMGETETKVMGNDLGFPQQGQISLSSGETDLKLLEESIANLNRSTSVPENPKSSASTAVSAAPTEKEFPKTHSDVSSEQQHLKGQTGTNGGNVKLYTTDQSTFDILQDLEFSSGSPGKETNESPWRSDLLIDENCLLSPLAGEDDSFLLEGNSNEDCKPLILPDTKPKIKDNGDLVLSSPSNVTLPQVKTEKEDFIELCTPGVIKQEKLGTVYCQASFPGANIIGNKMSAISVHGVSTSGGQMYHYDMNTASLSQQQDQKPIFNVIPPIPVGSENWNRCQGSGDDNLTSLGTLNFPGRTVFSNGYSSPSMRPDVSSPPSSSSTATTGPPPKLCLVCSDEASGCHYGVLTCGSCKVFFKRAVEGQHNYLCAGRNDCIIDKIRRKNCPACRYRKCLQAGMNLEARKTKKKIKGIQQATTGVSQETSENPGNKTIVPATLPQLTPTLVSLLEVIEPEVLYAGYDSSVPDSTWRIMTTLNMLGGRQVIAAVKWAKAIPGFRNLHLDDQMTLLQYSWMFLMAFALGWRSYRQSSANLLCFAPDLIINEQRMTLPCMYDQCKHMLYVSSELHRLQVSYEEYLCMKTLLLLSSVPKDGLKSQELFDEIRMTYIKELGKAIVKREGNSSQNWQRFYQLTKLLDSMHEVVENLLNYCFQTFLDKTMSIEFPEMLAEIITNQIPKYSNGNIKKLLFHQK
# [2] = system: mineralocorticoid, progesterone, estrogen and androgen receptors; details: in words only
# [3] = in words only
# [4] = in words only; remark: listed apart in the source
# [5] = phase I and phase II clinical trials already performed
compound,measurement,setting,value
"CC#C[C@]1(O)CC[C@H]2[C@@H]3CCC4=CC(=O)CCC4=C3[C@@H](c3ccc4c(c3)OCO4)C[C@@]21C [ORG 34517, (11β,17β)-11-(1,3-benzodioxol-5-yl)-17-hydroxy-17-(1-propynyl) estra-4,9-dien-3-one]",glucocorticoid receptor binding affinity,[1],high
same,cross-binding to other related steroidal hormone receptors (such as those for estrogen and progesterone),[2],without significant cross-binding
same,progestagenic activities,[3],low
same,androgenic activities,[4],low
same,significant toxicities and side effects identified,[5],none were identified
